Results taken from patent publication US20210038537A1, “Emodin for Use in Regulating Expression of Proteins Involved in Inflammation” (UNIVERSITY OF SOUTH CAROLINA, priority 2018, published 2021).

Legend:
[1] = test system: MCP-1, TNFα, and NOS2 expression; assay: 5FU-induced colon inflammation, inflammatory gene expression by qPCR in a non-disease model; format: in vivo, C57BL/6 mice; details: 5FU 3 cycles (40 then 20 mg/Kg) plus emodin 40 mg/Kg 3 times per week; vs 5FU plus vehicle
Method: FIG. 6 illustrates the inhibition of 5FU-induced colon inflammation. 5FU treated mice were administered emodin (40 mg/kg 3×wk) or vehicle treatment (n=5). A non-disease phosphate buffer saline (PBS) group was used as a control (n=5). Following 5FU treatment inflammatory mediators were analyzed in the colon via q PCR. *p<0.05.
The effects of dietary emodin on colon inflammation following 5FU administration were examined in a non-disease model. C57BL/6 mice were assigned to either emodin or control treatment (n=5). […] 5FU or PBS was administered daily for 5-days followed by a 9-day recovery (×3 cycles). The dose of 5FU was 40 mg/Kg in cycle 1 and 20 mg/Kg in cycles 2 and 3. Emodin (40 mg/Kg) was administered 3 times per week for the duration of the 5FU treatment.
Given the role of inflammation in chemotherapy-induced toxicity, an analysis of inflammatory genes from the intestines was performed.

5FU toxicity = assay: Functional measures and survival following 5FU administration in a non-disease model; format: in vivo, C57BL/6 mice
Method: Given the positive effects of emodin on inflammation associated with 5FU toxicity, use of emodin was further examined to determine any improvement in quality of life measures with emodin/5FU treatment vs. 5FU treatment alone. The effects of emodin on functional measures and survival following 5FU administration were examined in a non-disease model.
C57BL/6 mice were assigned to either emodin (40 mg/kg 3×per week; n=9) or vehicle treatment (n=10). 5FU was administered at 40 mg/kg in cycle 1 and 20 mg/kg in cycles 2 and 3. Emodin was administered 3 times per week for the duration of the 5FU treatment.
Following the final 5FU cycle, mice underwent a mechanical stimulation test and a run to fatigue.

[2] = test system: azoxymethane (AOM)/dextran sodium sulfate (DSS) mouse model of colorectal cancer; assay: AOM/DSS mouse model of colorectal cancer, tumor number; format: in vivo; details: emodin 40 mg/Kg via gavage three days a week for 10 weeks; vehicle approximately 7 tumors
Method: Effects of dietary emodin on tumorigenesis were examined in an azoxymethane (AOM)/dextran sodium sulfate (DSS) mouse model of colorectal cancer. Colorectal cancer was developed in mice according to known methods. Briefly, mice received a single injection of AOM (10 mg/Kg) followed by 2 cycles of DSS (2% in the water for 1 week followed by 2 weeks of plain water) as previously described (see, e.g., Tanaka T. Colorectal carcinogenesis: Review of human and experimental animal studies. J Carcinog 2009; 8:5; Enos R T, Velazquez K T, McClellan J L, et al. High-fat diets rich in saturated fat protect against azoxymethane/dextran sulfate sodium-induced colon cancer. American journal of physiology Gastrointestinal and liver physiology 2016; 310:G906-19).
The mice were administered either emodin or vehicle treatment (n=12) via gavage at a dose of 40 mg/Kg three days a week for the duration of the AOM/DSS protocol (10 weeks).

MC38 tumors = assay: MC38 mouse model of adenocarcinoma, tumor weight; format: in vivo; details: emodin 40 mg/Kg via gavage three days a week for 4 weeks; vehicle approximately 1,200 mg
Method: The MC38 mouse model of adenocarcinoma was used. Mice (n=4/group) were administered emodin or vehicle treatment via gavage at a dose of 40 mg/Kg three days a week for 4 weeks. Following the 4-week treatment period tumors in the vehicle treated group weighed approximately 1,200 mg, whereas those in the emodin treated group weighed approximately 400 mg.

[3] = test system: Apc^min/+ model of intestinal tumorigenesis; assay: Apc^min/+ model of intestinal tumorigenesis, polyp number; format: in vivo, mouse; details: emodin 40 mg/Kg via gavage three days a week for 12 weeks; vehicle approximately 75 polyps
Method: The Apc^min/+ model of intestinal tumorigenesis was utilized to test anti-tumor effects of emodin. Mice were administered emodin or vehicle treatment (n=7/group) via gavage at a dose of 40 mg/Kg three days a week for 12 weeks. Results are illustrated in FIG. 2. As indicated, the vehicle treated group had approximately 75 polyps per mouse, whereas emodin treated mice had less than 40 polyps per mouse.

[4] = test system: F4/80+ cells (macrophages) in MC38 colon tumors; assay: Macrophage infiltration into MC38 colon tumors by flow cytometry; format: in vivo, mouse; details: emodin 40 mg/Kg 3 times a week for 4 weeks, tumors of similar sizes
Method: (§1) To test the effects of emodin on TAMs in colorectal cancer, macrophage infiltration into MC38 colon tumors following control or emodin (40 mg/Kg) treatment (3 times a week for 4 weeks) was examined using flow cytometry. Tumors of similar sizes were selected so that emodin effects could be determined independent of any changes in tumor size.

[5] = test system: pro-tumor markers (Hif1a, IL-10, IL-6 and MCP-1); assay: Pro-tumor marker expression in MC38 tumors; format: in vivo, mouse; details: emodin 40 mg/Kg
Method: as §1, with “size. […] The effects of emodin on select pro-tumor markers (Hif1a, IL-10, IL-6 and MCP-1) in a tumor was also examined.” for “size.”

[6] = following the final 5FU cycle, emodin 40 mg/kg 3x per week

Question: With `Cc1cc(O)c2c(c1)C(=O)c1cc(O)cc(O)c1C2=O` [emodin, Emodin] as the compound, how does the “MCP-1 expression in colon/intestines after 5FU” value [1] read?
Answer: Its value is “decrease”.

Question: And the “NOS2 expression in colon/intestines after 5FU” value [1]?
Answer: Its value is “decrease”.

Question: And the “TNFα expression in colon/intestines after 5FU” value [1]?
Answer: The value was “decrease”.

Question: What about the “body weight loss associated with 5FU treatment” value (5FU toxicity; 3 cycles of 5FU plus emodin 40 mg/kg 3x per week) of the same compound?
Answer: Its value is “prevented the body weight loss”.

Question: And the “survival of the 5FU regime” value (5FU toxicity; 3 cycles of 5FU plus emodin 40 mg/kg 3x per week, vehicle group 50%)?
Answer: The value was 100%.

Question: What about the “5FU induced fatigability (run to fatigue)” value (5FU toxicity; [6]) of the same compound?
Answer: The value was “offset”.

Question: What about the “5FU induced sensitivity to pain (mechanical stimulation test)” value (5FU toxicity; [6]) of the same compound?
Answer: The value was “offset”.

Question: What about the “number of tumors following the 10-week AOM/DSS protocol” value [2] of the same compound?
Answer: Its value is “approximately 5 tumors”.

Question: What about the tumor weight (MC38 tumors) of the same compound?
Answer: The tumor weight was “approximately 400 mg”.

Question: And the polyps per mouse [3]?
Answer: The polyps per mouse was “less than 40 polyps per mouse”.

Question: What about the “F4/80+ cells (macrophages) in colon tumors” value [4] of the same compound?
Answer: Its value is “significantly reduce”.

Question: What about the “relative expression of Hif1a in tumor” value [5] of the same compound?
Answer: Its value is “decrease in relative marker expression”.

Question: And the “relative expression of IL-6 in tumor” value [5]?
Answer: The value was “decrease in relative marker expression”.

Question: What about the “relative expression of IL-10 in tumor” value [5] of the same compound?
Answer: The value was “decrease in relative marker expression”.

Question: What about the “relative expression of MCP-1 in tumor” value [5] of the same compound?
Answer: The value was “decrease in relative marker expression”.
